Converted amounts (≈) assume the structure as drawn.
Experiment: Dissolution assessment: solubility in FaSSIF
Assay type: physicochemical
Details: FaSSIF pH 6.5, 37° C., 600 rpm, target concentration 1.0 mg/mL
Experimental: An amount of Compound A (about 6 mg) and an amorphous solid dispersion (equivalent to around 6 mg Compound A) were weighed into separate 8 ml bottle, and 6 ml FaSSIF (Fasted state simulated intestinal fluid) was added (target concentration 1.0 mg/mL). The suspensions were stirred using a thermomixer at 37° C. under 600 rpm and 200 μL of suspensions were withdrawn at pre-set time intervals (such as 5 min) and then centrifuged at 14000 rpm for 4 min. Then, 100 μL of supernatant was diluted with 500 μL ACN (Acetonitrile) to prevent precipitation, and was analyzed by HPLC.
FaSSIF was prepared by following steps: 1) Place 0.1024 g sodium hydroxide, 0.7518 g sodium dihydrogen phosphate anhydrous and 1.5470 g sodium chloride in a 250 mL volumetric flask, add about 225 mL water, and adjust the pH to 6.5 with 1 N sodium hydroxide or 1N hydrochloric acid. Make up to volume (250 mL) with pure water. 2) Place and dissolve 0.4480 g SIF Powder Original with 100 mL of buffer (from step 1) in a 200 mL volumetric flask, add water to volume and mix well.

Solubility 5 min (5 min): 4.95 µg/mL (≈ 9.16 µM)
Solubility 15 min (15 min): 4.89 µg/mL (≈ 9.05 µM)
SMILES: COC(=O)OCOc1c2n(ccc1=O)N([C@H]1c3ccccc3CSc3c1ccc(F)c3F)CC1(CC1)C2=O [Sample 1, [1-((11S)-7,8-difluoro(6H,11H-dibenzo[c,f]thiepin-11-yl))-4,6-dioxospiro[1,2,3,9-tetrahydropyridino[1,2-e]pyridazine-3,1′-cyclopropane]-5-yloxy]methyl methoxyformate]

From patent US11872224B2, “Amorphous solid dispersion formulation” (TaiGen Biotechnology Co., Ltd., priority 2020, dated 2024)
